The text below walks through data of PubChem BioAssay AID652111 (The Scripps Research Institute Molecular Screening Center, 2013).

The source made the active and inactive calls.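 The calls were made as follows: active = IC50 below 50 µM against PP5; inactive = the rest.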 Bounds are passed on as bounds.

The assay deals with Serine/threonine-protein phosphatase 5 (Homo sapiens) (UniProt P53041). Kind of assay: human PP5 catalytic domain inhibitor potency – biochemical, radiolabel, glycogen phosphorylase substrate, powder samples, selectivity assay for PP1 inhibitor project, late-stage follow-up (AID 652111). Conditions: recombinant PP5c, 32P/33P phosphorylase dephosphorylation, scintillation.
Sequence of Serine/threonine-protein phosphatase 5 (Homo sapiens) (P53041 whole entry, looked up, the tested form may be a part): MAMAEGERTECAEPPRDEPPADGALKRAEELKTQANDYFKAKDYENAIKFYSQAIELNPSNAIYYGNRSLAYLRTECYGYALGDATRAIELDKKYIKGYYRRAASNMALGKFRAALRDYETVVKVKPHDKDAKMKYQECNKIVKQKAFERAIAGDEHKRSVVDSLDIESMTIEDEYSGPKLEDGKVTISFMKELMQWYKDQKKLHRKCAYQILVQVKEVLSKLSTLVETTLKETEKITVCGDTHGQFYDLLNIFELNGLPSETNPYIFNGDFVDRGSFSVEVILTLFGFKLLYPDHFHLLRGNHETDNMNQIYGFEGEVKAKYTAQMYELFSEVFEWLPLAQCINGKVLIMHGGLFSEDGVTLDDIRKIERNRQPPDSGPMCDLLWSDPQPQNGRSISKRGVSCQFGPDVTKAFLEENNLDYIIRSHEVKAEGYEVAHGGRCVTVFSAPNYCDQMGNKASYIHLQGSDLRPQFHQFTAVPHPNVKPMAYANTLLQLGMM
One may read the IC50 as the midpoint of a concentration-inhibition curve. For `CCOC(=O)c1sc2nc3c(SCC(=O)O)cc(C(=O)c4cc(F)ccc4O)cn3c(=O)c2c1C`, the IC50 is under 50 µM.

`CN1CCN(C(c2ccccn2)c2cc(Cl)c3cccnc3c2O)CC1` (stereo not given): the IC50 was > 50 µM (inactive).

Turning to `N#Cc1c(-c2ccc(Cl)cc2)cc(-c2cccs2)nc1SCC(=O)O`, the IC50 is under 50 µM. Take `COc1ccc(NC(=O)C2C3CCC(O3)C2C(=O)O)c(OC)c1` (stereo not given): the IC50 was 4.16 µM. To `CCn1c2ccccc2c2cc(NC(=O)COC(=O)c3ccc(NC(=O)CC#N)cc3)ccc21` belongs > 50 µM (inactive).
